Measurements from PMC12277872, “Design, Synthesis, In Vitro, and In Silico Studies of 5‐(Diethylamino)‐2‐Formylphenyl Naphthalene‐2‐Sulfonate Based Thiosemicarbazones as Potent Anti‐Alzheimer Agents” (Archiv Der Pharmazie, 2025).

Assays:
hMAO‐A = biological target: T1, hMAO‐A (Homo sapiens, UniProt P21397); assay: In vitro fluorometric MAO-A inhibition assay (tyramine substrate, horseradish peroxidase coupling); format: biochemical
T1 construct: purchased Sigma Aldrich M7316
T1 sequence (P21397 1-527): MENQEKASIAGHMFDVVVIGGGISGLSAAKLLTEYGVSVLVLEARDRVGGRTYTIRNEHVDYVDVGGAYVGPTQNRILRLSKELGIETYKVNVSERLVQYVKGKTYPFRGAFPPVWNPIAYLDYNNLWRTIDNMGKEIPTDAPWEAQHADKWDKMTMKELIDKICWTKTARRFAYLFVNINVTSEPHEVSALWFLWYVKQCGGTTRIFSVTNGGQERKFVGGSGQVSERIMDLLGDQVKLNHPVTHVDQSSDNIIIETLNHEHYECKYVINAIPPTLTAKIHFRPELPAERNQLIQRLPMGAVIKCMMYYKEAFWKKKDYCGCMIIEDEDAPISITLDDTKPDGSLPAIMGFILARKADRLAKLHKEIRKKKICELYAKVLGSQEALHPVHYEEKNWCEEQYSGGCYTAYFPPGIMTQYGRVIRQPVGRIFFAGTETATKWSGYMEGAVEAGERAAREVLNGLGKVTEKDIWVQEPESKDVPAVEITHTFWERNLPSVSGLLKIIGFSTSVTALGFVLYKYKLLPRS
Experimental: (§1) The in vitro fluorometric technique was used to assess each newly generated substance's inhibitory activity against hMAO‐A and hMAO‐B. In a horseradish peroxidase coupling reaction, the oxired reagent (10‐acetyl‐3,7‐dihydroxyphenoxazine) detects H2O2, a result of the oxidative deamination of tyramine, which is utilized as an MAO substrate. The test was carried out in two steps. First, each compound's concentrations of 10^–3 and 10^–4 M were investigated. […] These parameters of this study were made as in previous studies. We purchased these two enzymes from Sigma Aldrich (M7316‐Monoamine Oxidase A human and M7441‐ […]).

BChE from equine serum = biological target: T2, BChE from equine serum (Equus caballus, UniProt P81908); assay: biochemical; details: for IC50: BChI substrate, DTNB, 412 nm, Tris/HCl pH 8.0; for Ki: read-out: K i (nM) BChE
T2 construct: C7512‐ BChE from equine serum; purchased Sigma Aldrich C7512; host or cells: equine serum
Experimental: (§2) Both […] (AChI) and butyrylcholine iodide (BChI) were used as substrates for the enzymatic hydrolysis reactions, with 5,5′‐dithiobis(2‐nitrobenzoic acid) (DTNB) serving as a common reagent for detecting the activities of AChE and BChE. The assay was conducted: 1 mL of 1.0 M Tris/HCl buffer (pH 8.0) was mixed with 10 μL of the sample solution in deionized water. To this mixture, 50 μL of AChE or BChE enzyme solution was added, and the reaction was incubated at room temperature for 10 min. After incubation, 50 μL of DTNB (0.5 mM) was introduced, followed by the addition of 50 μL of either AChI or BChI (10 mM), initiating the enzymatic reaction. The hydrolysis of the substrates was monitored spectrophotometrically by measuring the absorbance at 412 nm, corresponding to the formation of the yellow‐colored 5‐thio‐2‐nitrobenzoate anion. This color change is due to the reaction of DTNB with thiocholine released during the hydrolysis of AChI or BChI. For every inhibitor that was utilized, IC50 and K i values were determined. In this study, C7512‐ BChE from equine serum and C3389‐ AChE from Electrophorus electricus (electric eel) were purchased from Sigma Aldrich.

[1] = biological target: T3, AChE from Electrophorus electricus (electric eel) (Electrophorus electricus, UniProt O42275); assay: biochemical; details: for IC50: AChI substrate, DTNB, 412 nm, Tris/HCl pH 8.0; for Ki: read-out: K i (nM) AChE
T3 construct: purchased Sigma Aldrich C3389
Experimental: as §2, with “The hydrolysis of the substrates was monitored spectrophotometrically by measuring the absorbance at 412 nm, corresponding to the formation of the yellow‐colored 5‐thio‐2‐nitrobenzoate anion.” left out

hMAO‐B = biological target: T4, hMAO‐B (Homo sapiens, UniProt P27338); assay: In vitro fluorometric MAO-B inhibition assay (tyramine substrate, horseradish peroxidase coupling); format: biochemical
T4 construct: purchased Sigma Aldrich M7441
T4 sequence (P27338 1-520): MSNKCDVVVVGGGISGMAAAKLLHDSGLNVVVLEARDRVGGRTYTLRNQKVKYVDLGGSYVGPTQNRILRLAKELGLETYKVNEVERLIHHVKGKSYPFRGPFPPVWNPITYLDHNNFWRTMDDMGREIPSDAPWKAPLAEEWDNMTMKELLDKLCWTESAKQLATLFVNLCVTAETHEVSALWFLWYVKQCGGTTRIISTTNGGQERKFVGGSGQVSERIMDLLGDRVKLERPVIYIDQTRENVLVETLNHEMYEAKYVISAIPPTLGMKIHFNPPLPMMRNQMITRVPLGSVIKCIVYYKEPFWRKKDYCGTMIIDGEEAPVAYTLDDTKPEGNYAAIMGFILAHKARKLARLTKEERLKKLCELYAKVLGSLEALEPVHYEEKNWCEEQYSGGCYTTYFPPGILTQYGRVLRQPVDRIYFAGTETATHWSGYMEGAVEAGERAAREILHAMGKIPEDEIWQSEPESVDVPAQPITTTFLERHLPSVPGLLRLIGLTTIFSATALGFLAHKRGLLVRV
Experimental: as §1

T3 sequence (O42275 24-633): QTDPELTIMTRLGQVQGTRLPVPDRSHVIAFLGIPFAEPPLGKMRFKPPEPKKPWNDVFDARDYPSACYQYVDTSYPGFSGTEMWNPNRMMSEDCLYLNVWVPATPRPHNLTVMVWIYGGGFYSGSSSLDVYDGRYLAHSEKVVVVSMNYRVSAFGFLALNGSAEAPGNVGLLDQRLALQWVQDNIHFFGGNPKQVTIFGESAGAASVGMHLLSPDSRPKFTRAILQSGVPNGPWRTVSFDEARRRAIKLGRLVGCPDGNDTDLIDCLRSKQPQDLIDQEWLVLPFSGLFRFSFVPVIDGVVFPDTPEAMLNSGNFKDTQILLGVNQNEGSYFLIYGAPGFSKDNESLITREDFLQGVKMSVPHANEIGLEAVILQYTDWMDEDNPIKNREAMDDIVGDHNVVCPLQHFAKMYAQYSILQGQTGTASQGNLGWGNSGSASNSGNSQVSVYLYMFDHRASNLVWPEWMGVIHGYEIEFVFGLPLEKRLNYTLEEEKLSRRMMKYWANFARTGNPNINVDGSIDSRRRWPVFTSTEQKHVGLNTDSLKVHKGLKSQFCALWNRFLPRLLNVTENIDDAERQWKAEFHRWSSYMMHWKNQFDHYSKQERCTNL
T2 sequence (P81908 whole entry): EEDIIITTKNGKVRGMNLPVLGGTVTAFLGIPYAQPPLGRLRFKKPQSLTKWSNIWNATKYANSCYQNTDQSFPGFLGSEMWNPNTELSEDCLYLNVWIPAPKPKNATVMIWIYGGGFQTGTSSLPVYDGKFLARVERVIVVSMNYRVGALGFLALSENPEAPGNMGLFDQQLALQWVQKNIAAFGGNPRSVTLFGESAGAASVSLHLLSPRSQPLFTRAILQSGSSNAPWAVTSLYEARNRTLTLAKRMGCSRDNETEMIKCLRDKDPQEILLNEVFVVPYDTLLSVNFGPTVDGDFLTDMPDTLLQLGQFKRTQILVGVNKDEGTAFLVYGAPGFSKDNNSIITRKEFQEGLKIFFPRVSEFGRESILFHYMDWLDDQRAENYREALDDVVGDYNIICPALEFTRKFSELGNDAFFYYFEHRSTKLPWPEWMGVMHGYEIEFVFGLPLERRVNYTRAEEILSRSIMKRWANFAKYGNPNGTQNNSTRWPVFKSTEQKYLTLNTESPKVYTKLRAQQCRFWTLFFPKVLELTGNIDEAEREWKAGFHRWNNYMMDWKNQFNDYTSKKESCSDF

| SMILES | IC50 (hMAO‐A) [nM] | IC50 (BChE from equine serum) [nM] | Ki (BChE from equine serum) [nM] | IC50 [1] [nM] | Ki [1] [nM] | IC50 (hMAO‐B) [nM] |
| --- | --- | --- | --- | --- | --- | --- |
| CCN(CC)c1ccc(/C=N/NC(=S)Nc2ccc(Br)cc2)c(OS(=O)(=O)c2ccc3ccccc3c2)c1 [Compound 5b, (E)‐2‐({2‐[(4‐Bromophenyl)carbamothioyl]hydrazono}methyl)‐5‐(diethylamino)phenyl naphthalene‐2‐sulfonate] | 132 ± 7.01 | 202 ± 5.66 | 191 ± 15.7 | 33.8 ± 3.41 | 26.6 ± 3.34 | 410 ± 7.47 |
| CCN(CC)c1ccc(/C=N/NC(=S)NC)c(OS(=O)(=O)c2ccc3ccccc3c2)c1 [Compound 5m, (E)‐5‐(Diethylamino)‐2‐{[2‐(methylcarbamothioyl)hydrazono]methyl}phenyl naphthalene‐2‐sulfonate] | 132 ± 4.96 | 214 ± 7.13 | 193 ± 11.6 | 38.5 ± 3.21 | 30.2 ± 5.02 | 369 ± 11.2 |
| CCN(CC)c1ccc(/C=N/NC(=S)Nc2ccc(OC)cc2)c(OS(=O)(=O)c2ccc3ccccc3c2)c1 [Compound 5d, (E)‐5‐(Diethylamino)‐2‐({2‐[(4‐methoxyphenyl)carbamothioyl]hydrazono}methyl)phenyl naphthalene‐2‐sulfonate] | 171 ± 10.4 | 253 ± 10.5 | 235 ± 15 | 39.4 ± 2.87 | 32.2 ± 5.93 | 406 ± 8.24 |
| CCN(CC)c1ccc(/C=N/NC(=S)NCc2ccc(Cl)cc2)c(OS(=O)(=O)c2ccc3ccccc3c2)c1 [Compound 5q, (E)‐2‐({2‐[(4‐Chlorobenzyl)carbamothioyl]hydrazono}methyl)‐5‐(diethylamino)phenyl naphthalene‐2‐sulfonate] | 119 ± 9.24 | 202 ± 14.9 | 183 ± 11.5 | 19.3 ± 1.28 | 17.6 ± 3.34 | 308 ± 6.07 |
| CCN(CC)c1ccc(/C=N/NC(N)=S)c(OS(=O)(=O)c2ccc3ccccc3c2)c1 [Compound 5n, (E)‐2‐[(2‐Carbamothioylhydrazono)methyl]‐5‐(diethylamino)phenyl naphthalene‐2‐sulfonate] | 137 ± 6.55 | 308 ± 9.98 | 270 ± 13.5 | 47.7 ± 5.67 | 42.4 ± 4.1 | 396 ± 8.09 |
| CCN(CC)c1ccc(/C=N/NC(=S)Nc2c(C)cccc2C)c(OS(=O)(=O)c2ccc3ccccc3c2)c1 [Compound 5j, (E)‐5‐(Diethylamino)‐2‐({2‐[(2,6‐dimethylphenyl)carbamothioyl]hydrazono}methyl)phenyl naphthalene‐2‐sulfonate] | 137 ± 6.21 | 265 ± 7.9 | 228 ± 12.4 | 40.6 ± 2.77 | 36.5 ± 5.23 | 395 ± 8.35 |
